Key:
[1] = tested on: renal cancer cell line (ACHN cells and CAKI-1 cells); assay: Trypan blue live cell count, renal cancer cell line (cell line not distinguished); format: cell-based; settings: 48 h, read-out: cell viability relative to untreated control
Procedure: Specifically, after ACHN cells which are a renal cancer cell (RCC) line and CAKI-1 cells (provided by the National Cancer Center, Korea) were each inoculated into an RPM1640 medium containing 10% FBS and cultured, and then further cultured for 48 hours after being treated with 10 nM rapamycin and/or 10 nM streptonigrin in combination or alone. After the culture, cells were stained by treating respective cells with 0.4% trypan blue, and live and dead cells were sorted and counted. For the number of counted cells, the ratio of the number of relative live cells was calculated based on the number of live cells of an untreated control which had not been treated with rapamycin and streptonigrin.
Specifically, the relative ratio of the number of live cells was calculated in the same manner as in Example <2-1>, using 5 μM of pazopanib and 2 nM of streptonigrin.

[2] = tested on: CAKI-1 renal cancer cell line xenograft; assay: CD31 immunohistochemistry of tumors in CAKI-1 xenograft mouse model; format: in vivo, mice
Procedure: Specifically, a mouse model was prepared by xenografting mice with a CAKI-1 cell line which is a renal cancer cell line. And then, the formation of a tumor was observed after administering streptonigrin to the mouse model at a dose of 0.1 mg/kg or 0.2 mg/kg, and breeding the mice. After the xenografting, a biopsy tissue sample was obtained by excising tumor sites, and the level of expression of CD31-positive cells, which are a blood vessel specific marker, was confirmed by immunohistochemically staining the sample.

[3] = tested on: human umbilical vein endothelial cells (HUVECs); assay: BrdUrd labeling assay (proliferation) in HUVECs; format: cell-based; settings: compared to siCTL control
Procedure: Specifically, human umbilical vein endothelial cells (HUVECs) were inoculated into a medium and cultured, and then further cultured after the medium was treated with siRNA of siCTL or siTGase2 (siTG2) and VEGF as a vascular growth promoting factor. After cells treated with the siRNA and VEGF were cultured, the medium was again treated with bromodeoxyuridine (BudUrd), a BrdUrd labeling assay was performed. For quantification, BrdUrd-positive cells were counted among the cells grown on the medium. For the counted cells, the number of BrdUrd-positive cells in the siCTL-treated and VEGF-untreated groups was used as a reference, and the number of BrdUrd cells in each experimental group was obtained as a relative percentage.

[4] = tested on: human umbilical vein endothelial cells (HUVECs); assay: Migration of HUVECs; format: cell-based; settings: compared to siCTL control
[5] = tested on: human umbilical vein endothelial cells (HUVECs); assay: Angiogenesis analysis (tube segments on Matrigel) in HUVECs; format: cell-based; settings: compared to siCTL control
Procedure: At the same time, an angiogenesis analysis was also performed. Cells were allowed to adhere to the well surface and cultured by inoculating HUVEC cells into Matrigel-coated wells. Cells were further cultured by adding VEGF and each siRNA to the medium, and then tube segments formed were counted using an angiogenesis assay kit.

Row | Molecule | viability at 0.01 µM [1] [%] | number of CD31-positive cells with increasing dose ([2]; streptonigrin 0.1 mg/kg or 0.2 mg/kg) | level of CD31-positive cells relative to control ([2]; streptonigrin 0.2 mg/kg, tumor biopsy) | proliferation of cells (BrdUrd-positive cells) [3] | migration of cells [4] | angiogenesis degree (tube formation) [5]
1 | CO[C@H]1C[C@@H]2CC[C@@H](C)[C@@](O)(O2)C(=O)C(=O)N2CCCC[C@H]2C(=O)O[C@H]([C@H](C)C[C@@H]2CC[C@@H](O)[C@H](OC)C2)CC(=O)[C@H](C)/C=C(\C)[C@@H](O)[C@@H](OC)C(=O)[C@H](C)C[C@H](C)/C=C/C=C/C=C/1C [rapamycin] | ≥ 90 | – | – | – | – | –
2 | COC1=C(N)C(=O)c2nc(-c3nc(C(=O)O)c(C)c(-c4ccc(OC)c(OC)c4O)c3N)ccc2C1=O [streptonigrin] | ≥ 65 | decreased | about 20% | – | – | –
3 | VEGF | – | – | – | sharply increased | sharply increased | sharply increased
